Measurements from US20120114823A1, “Feed Additive For Improved Pigment Retention” (TROUW INTERNATIONAL B.V., priority 2009, published 2012).
Read-outs that look alike come from different tables or passages of the source.

How the values were obtained:
salmon (S. salar) [1] = experiment: Feeding test with gallic acid in astaxanthin feed, retention of astaxanthin in fish muscle (Example 1); format: in vivo, Salmo salar; details: for retention of astaxanthin in fish muscle: 5.5 months
Method: The test was carried out on salmon (S. salar) over a 5.5-month period between November 11 and May 5. The test was carried out in vessels having a diameter of 1 metre. The vessels were filled with seawater and the water temperature varied between 8 and 12° C. in the period. There were 34-35 fish in each vessel. Mean weight at start was 118 g. The control group consisted of three vessels, while each test group consisted of one vessel.
The feeds had the following main component composition: 43.5% protein; 27.7% fat; 7.8% water and 8.0% ash.
There was produced feed having three different levels of astaxanthin, 15, 30 and 45 mg astaxanthin/kg respectively, both of the control feeds and the test feeds, by that different amounts of Carophyll Pink were added to the meal mixture before extrusion.
Adding gallic acid into the meal mix to the same recipe as the control feeds provided the test feeds. Gallic acid was added in four levels to the test feeds, low, medium, high and very high, respectively. Low level corresponds to an inclusion level of between 10 and 75 ppm, represented in the examples with an inclusion level of 15 ppm, medium level corresponds to an inclusion level of between 76 and 750 ppm, represented in the examples with an inclusion level of 400 ppm, high level corresponds to an inclusion level of between 751 and 1500 ppm, represented in the example with an inclusion level of 1200 ppm, and very high level corresponds to an inclusion level of over 1500 ppm, represented in the example with an inclusion level of 3600 ppm.
At the termination of the test the fish weighed in average 557 g. SGR was between 0.84%/d and 0.89%/d. The fish were filleted and the fillets were analysed for chemical astaxanthin in duplicates of pooled samples of fillets. Astaxanthin was analysed with HPLC according to a method developed by Roche with modifications.

sea bream = details: cited from earlier work
salmon (S. salar) [2] = experiment: Feeding test with ferulic acid in astaxanthin feed, retention of astaxanthin in fish muscle (Example 2); format: in vivo, Salmo salar
Method: The test was carried out with salmon (S. salar) from May 4th to August 20th. The test was carried out in vessels having a diameter of 1 metre. The vessels were filled with seawater and the water temperature varied between 8.3 and 11.8° C. in the period. There were 30 fish in each vessel having a mean weight of 0.2 kg at the start. The control group consisted of two vessels per diet, while the test group consisted of one vessel at medium inclusion of ferulic acid and two vessels per diet at low inclusion of ferulic acid.
The feed had the following main component composition: 44.5% protein; 28.2% fat; 7.6% water and 7.2% ash.
The test feed had the same composition as shown in table 2 and had in addition added ferulic acid as dry powder in meal mix before extrusion. Ferulic acid was added at two levels: low and medium, where the levels are defined as in example 1.
Each feed was formulated with two levels of astaxanthin, 20 and 40 mg/kg.
At the termination of the test the fish weighed 0.7 kg as an average. […] The fish were filleted and the fillet analysed for astaxanthin. Thirty fish per vessel were analysed individually with NIR.

rainbow trout [3] = details: oral via feed; cited from earlier work
rainbow trout [4] = details: rainbow trout fed two months; feed with 80 ppm astaxanthin, alone or with 160 ppm proantocyanidin (0.1% KPA-F); cited from earlier work

O=C(O)c1cc(O)c(O)c(O)c1 [gallic acid, 3,4,5-hydroxybenzoic acid]
retention of astaxanthin versus control (salmon (S. salar) [1]; astaxanthin content in the feeds approx. 40 ppm): little difference in the retention | retention of astaxanthin in fish muscle (salmon (S. salar) [1]; high inclusion levels of gallic acid in feed (751-1500 ppm, represented by 1200 ppm)): hamper the retention of astaxanthin | effect on the retention of astaxanthin (salmon (S. salar) [1]; lowest inclusion level of gallic acid (15 ppm) compared with medium level (400 ppm)): equally good effect on the retention of astaxanthin as a medium level | retention of astaxanthin in fish muscle (salmon (S. salar) [1]; very high level of gallic acid in feed (over 1500 ppm, represented by 3600 ppm)): worse retention than at the other tested levels

COc1cc(C=CC(=O)O)ccc1O [ferulic acid, 3-(4-hydroxy-3-metoxyphenol)prop-2-enoic acid]
increase in the level of astaxanthin in fish skin (sea bream; 1000 ppm ferulic acid): mild increase | increase in the level of astaxanthin in fish skin (sea bream; only 100 ppm ferulic acid): no increase | effect on the retention of astaxanthin (salmon (S. salar) [2]; low level of ferulic acid (15 ppm), feed contained less than 20 ppm of astaxanthin): favourable effect on the retention of astaxanthin | effect on the retention of astaxanthin (salmon (S. salar) [2]; medium level of ferulic acid (400 ppm), feed contained more than 30 ppm of astaxanthin): favourable effect on the retention of astaxanthin

CC1=C(/C=C/C(C)=C/C=C/C(C)=C/C=C/C=C(C)/C=C/C=C(C)/C=C/C2=C(C)C(=O)C(O)CC2(C)C)C(C)(C)CC(O)C1=O (stereo not drawn) [astaxanthin, 3,3′-dihydroxy β,β-carotene-4,4′-dion]
share of added astaxanthin in the feed deposited in the fish meat (rainbow trout [3]): up to 15% | chemical content of astaxanthin in the muscle at the end of the experiment (rainbow trout [4]): 6.57 ppm
